Data as given in patent US20140057940A1, “Methods for Treating or Preventing Cardiac and Neurological Disorders Using Chemokine Receptor Antagonists” (priority 2011, published 2014).

Key:
[1] = system: SIV-infected macaques; conditions: echocardiography, FIG. 7
[2] = system: isolated macaque cardiomyocytes; experiment: Sarcomeric contraction of field-stimulated (1 Hz) isolated single cardiomyocytes; assay type: cell-based
From the text: In addition to SIV, the chemokines CCL3, CCL4, and CCL5 can also bind to CCR5 and initiate signaling pathways. In order to evaluate the ability of CCL5 to alter sarcomeric contraction in a CCR5-dependent manner, isolated single cardiomyocytes were field stimulated (1 Hz) and sarcomeric contraction measured over time.

[3] = system: CD68 and amyloid precursor protein (APP) in the brain; experiment: Immunostaining for CD68 and amyloid precursor protein (APP) in the brain; assay type: in vivo, rhesus macaques; conditions: 200 mg PO BID
Method: (§1) To determine whether the CCR5 antagonist maraviroc altered CNS disease progression, SIV-infected animals from were treated with maraviroc and CNS outcomes were compared with untreated SIV-infected animals. Specifically, six rhesus macaques were inoculated with SIV/17E-Fr and SIV/DeltaB670 and treated with maraviroc (200 mg PO BID) beginning 24 days post-inoculation until the study endpoint 180 days postinoculation, 22 SIV-infected animals served as untreated, SIV-infected controls, and 8 additional animals served as untreated, uninfected controls (Example 2). Maraviroc levels in plasma and CSF were measured using liquid chromatography tandem mass spectrometry. SIV RNA levels in plasma, CSF, spleen, and brain were measured by qRT-PCR. Immunostaining for CD68 and amyloid precursor protein (APP) in the brain was measured by digital image analysis. Group comparisons were performed by the Mann-Whitney test.

[4] = system: SIV/17E-Fr and SIV/DeltaB670; experiment: SIV RNA levels in plasma, CSF, spleen and brain by qRT-PCR; assay type: in vivo, rhesus macaques; conditions: 200 mg PO BID from day 24 to day 180 post-inoculation
Method: as §1

[5] = system: CD68+ macrophages and CD163 expression in the myocardium; experiment: Immunostaining for macrophage markers CD68 and CD163 in myocardium; assay type: in vivo, rhesus macaques; conditions: SIV-infected macaques, FIG. 8
From the text: To characterize the mononuclear cell populations in myocardium, sections were immunostained for the macrophage marker CD68 and measured by quantitative image analysis. In uninfected animals, CD68+ immunostaining localized to single, round cells located diffusely throughout the myocardium with increased numbers around vessels, consistent with resident macrophages. In SIV-infected animals, CD68+macrophages in perivascular areas were more prominent, likely reflecting recruited, infiltrating macrophages. […] Myocardium was also immunostained for the macrophage marker CD 163. […] In control animals, spindle shaped CD163+ cells were present diffusely throughout the myocardium occasionally forming small clusters. In SIV-infected macaques, cells were similarly spindle shaped to stellate with more extensive cellular processes. […] Myocardial CD163 immunostaining was highly correlated with CD68 immunostaining.

[6] = system: SIV/17E-Fr and SIV/DeltaB670; experiment: SIV-infected rhesus macaques: survival, CD4+ cell count and viral loads; assay type: in vivo
From the text: Twenty-two adult rhesus macaques (mean age=11 years) pre-screened for SIV, STLV-1, and simian type D retrovirus were inoculated intravenously with the macrophagetropic clone SIV/17E-Fr and the immunosuppressive swarm SIV/DeltaB670 (FIG. 3). Age-matched adult rhesus macaques (mean age=11 years) were inoculated with media alone as controls. […] At euthanasia, all animals were perfused with saline to remove blood from the systemic vasculature. Hearts were immediately harvested and samples were immersion fixed in Streck Tissue Fixative (Streck, Omaha, Nebr.) or flash frozen.

[7] = system: isolated macaque cardiomyocytes; experiment: Calcium transient amplitude in isolated cardiomyocytes; assay type: cell-based; conditions: FIG. 1E, ANOVA P=0.72
[8] = versus untreated SIV-infected macaques
[9] = SIV-infected macaques, 40 mg/kg orally twice per day

4,4-difluoro-N-{(1S)-3-[exo-3-(3-isopropyl-5-methyl-4H-1,2,4-triazol-4-yl)-8-azabicyclo[3.2.1]oct-8-yl]-1-phenylpropyl}cyclohexanecarboxamide [maraviroc]
mitral inflow parameters consistent with diastolic dysfunction with impaired relaxation [1]: significantly ameliorated
effect on the induced reduction in sarcomeric contraction ([2]; addition after CCL5, FIG. 1A-1C): reversed
difference in shortening between baseline and treatment ([2]; after CCL5, P=0.72): no significant difference
effect on the CCL5-induced decrease in sarcomeric shortening ([2]; subsequent addition in the same cells, FIG. 1D): modulated the CCL5 effect towards basal contraction
CNS macrophage activation represented by CD68 immunostaining ([3]; P<0.001, FIG. 10): lowered
axonal APP immunostaining ([3]; P=0.003, FIG. 10): lowered
SIV RNA levels in spleen [4]: reduced
plasma viral load [4]: reduced
SIV RNA levels in CSF [4, 8]: significantly lower
SIV RNA levels in brain [4, 8]: significantly lower
CD68+ macrophage level in myocardium [5]: do not change
CD163 expression by macrophages in myocardium [5]: lowered to levels present in uninfected and untreated subjects
outcomes (CSF, plasma, spleen, heart viral load) versus rapid (RP) and long term progression (LTP) groups ([6]; FIG. 6, LTP over 180 days post-SIV inoculation): improves outcomes in both RP and LTP groups
CD4+ cell counts [6, 9]: increased
survival relative to the untreated cohort [6, 9]: significantly increased
viral load in CSF [6, 9]: reduced
viral load in heart [6, 9]: reduced
viral load in plasma [6, 9]: reduced
viral load in spleen [6, 9]: reduced
calcium transient amplitude ([7]; RANTES+MVC treatment): not altered

B1: CCL5: specific chemokine ligand that can bind to CCR5 and initiate signaling pathways (protein, UniProt P13501 24-91, looked up)
C-C motif chemokine 5: SPYSSDTTPCCFAYIARPLPRAHIKEYFYTSGKCSNPAVVFVTRKNRQVCANPEKKWVREYINSLEMS
sarcomeric shortening ([2]; 14 VCM, mean of 20 contraction cycles/cell at steady state, FIG. 1D, p<0.001): significantly decreased
mean % decline in contraction from baseline contraction length ([2]; isolated macaque cardiomyocytes, FIG. 1C, P=0.009): 22%
calcium transient amplitude ([7]; RANTES treatment): not altered
